Data: article PMC8799717, “Pharmacological targeting PIKfyve and tubulin as an effective treatment strategy for double-hit lymphoma” (Cell Death Discovery, 2022)

Legend:
Experiment in all cases: biochemical
Parameters in all cases: KINOMEscan active-site-directed competition binding panel, 468 kinases, percent of DMSO control at 1 uM
Conditions in all cases: KINOMEscan binding, percent of DMSO control; read-out: Ctrl%
[1] = molecular target: T1, ABL1(Q252H)-phosphorylated (Homo sapiens, UniProt P00519, Q252H)
T1 construct: phosphorylated

ADCK4 = molecular target: T2, ADCK4 (Homo sapiens, UniProt Q96D53)
T2 construct: gene COQ8B

AMPK-alpha1 = molecular target: T3, AMPK-alpha1 (Homo sapiens, UniProt Q13131)
T3 construct: gene PRKAA1
T3 sequence (Q13131 whole entry): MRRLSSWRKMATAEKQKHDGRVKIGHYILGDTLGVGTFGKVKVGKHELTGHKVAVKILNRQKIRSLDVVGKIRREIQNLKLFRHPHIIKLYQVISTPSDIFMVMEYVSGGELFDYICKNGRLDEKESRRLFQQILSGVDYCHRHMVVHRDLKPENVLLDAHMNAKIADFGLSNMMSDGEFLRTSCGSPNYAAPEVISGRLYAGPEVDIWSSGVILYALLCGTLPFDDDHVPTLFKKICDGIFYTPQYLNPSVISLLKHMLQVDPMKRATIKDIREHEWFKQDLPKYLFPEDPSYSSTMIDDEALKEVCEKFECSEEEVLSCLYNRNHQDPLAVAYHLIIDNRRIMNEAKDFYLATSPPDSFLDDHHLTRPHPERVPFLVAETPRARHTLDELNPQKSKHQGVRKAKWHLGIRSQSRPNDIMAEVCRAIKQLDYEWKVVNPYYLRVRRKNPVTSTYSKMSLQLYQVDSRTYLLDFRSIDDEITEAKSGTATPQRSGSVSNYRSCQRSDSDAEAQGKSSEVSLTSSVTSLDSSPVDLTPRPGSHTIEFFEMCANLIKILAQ

BUB1 = BUB1 (Homo sapiens, UniProt O43683)
Sequence of BUB1 (O43683 whole entry): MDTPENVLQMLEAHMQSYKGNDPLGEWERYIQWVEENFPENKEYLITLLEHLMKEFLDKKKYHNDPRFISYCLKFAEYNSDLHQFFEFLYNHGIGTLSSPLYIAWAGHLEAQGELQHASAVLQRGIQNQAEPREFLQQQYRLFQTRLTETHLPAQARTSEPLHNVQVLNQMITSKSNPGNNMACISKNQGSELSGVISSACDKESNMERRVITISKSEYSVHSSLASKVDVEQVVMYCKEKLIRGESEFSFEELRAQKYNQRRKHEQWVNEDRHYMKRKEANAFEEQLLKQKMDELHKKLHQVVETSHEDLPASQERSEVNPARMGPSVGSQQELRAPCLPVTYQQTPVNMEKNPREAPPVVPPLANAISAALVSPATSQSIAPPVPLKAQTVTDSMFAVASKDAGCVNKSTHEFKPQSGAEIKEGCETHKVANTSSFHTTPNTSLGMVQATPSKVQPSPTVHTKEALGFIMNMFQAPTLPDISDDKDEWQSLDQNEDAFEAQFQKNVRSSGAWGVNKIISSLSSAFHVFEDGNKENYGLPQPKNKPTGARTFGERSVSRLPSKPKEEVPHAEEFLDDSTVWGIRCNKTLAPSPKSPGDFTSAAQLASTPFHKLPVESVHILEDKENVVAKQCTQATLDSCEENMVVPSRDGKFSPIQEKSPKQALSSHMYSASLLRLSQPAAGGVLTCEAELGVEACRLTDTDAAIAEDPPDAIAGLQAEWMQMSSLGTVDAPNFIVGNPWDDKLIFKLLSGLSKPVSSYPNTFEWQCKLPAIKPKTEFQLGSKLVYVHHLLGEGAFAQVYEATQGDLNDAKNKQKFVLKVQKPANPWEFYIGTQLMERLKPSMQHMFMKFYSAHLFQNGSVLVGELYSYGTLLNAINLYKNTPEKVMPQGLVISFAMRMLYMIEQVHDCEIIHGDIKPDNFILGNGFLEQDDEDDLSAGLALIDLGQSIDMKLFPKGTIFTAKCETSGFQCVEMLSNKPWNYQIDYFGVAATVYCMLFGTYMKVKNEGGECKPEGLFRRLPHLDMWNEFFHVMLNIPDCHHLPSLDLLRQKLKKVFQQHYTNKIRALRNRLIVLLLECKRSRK

CSNK2A2 = CSNK2A2 (Homo sapiens, UniProt P19784)
DCAMKL3 = molecular target: T4, DCAMKL3 (Homo sapiens, UniProt Q9C098)
T4 construct: gene DCLK3
T4 sequence (Q9C098 whole entry): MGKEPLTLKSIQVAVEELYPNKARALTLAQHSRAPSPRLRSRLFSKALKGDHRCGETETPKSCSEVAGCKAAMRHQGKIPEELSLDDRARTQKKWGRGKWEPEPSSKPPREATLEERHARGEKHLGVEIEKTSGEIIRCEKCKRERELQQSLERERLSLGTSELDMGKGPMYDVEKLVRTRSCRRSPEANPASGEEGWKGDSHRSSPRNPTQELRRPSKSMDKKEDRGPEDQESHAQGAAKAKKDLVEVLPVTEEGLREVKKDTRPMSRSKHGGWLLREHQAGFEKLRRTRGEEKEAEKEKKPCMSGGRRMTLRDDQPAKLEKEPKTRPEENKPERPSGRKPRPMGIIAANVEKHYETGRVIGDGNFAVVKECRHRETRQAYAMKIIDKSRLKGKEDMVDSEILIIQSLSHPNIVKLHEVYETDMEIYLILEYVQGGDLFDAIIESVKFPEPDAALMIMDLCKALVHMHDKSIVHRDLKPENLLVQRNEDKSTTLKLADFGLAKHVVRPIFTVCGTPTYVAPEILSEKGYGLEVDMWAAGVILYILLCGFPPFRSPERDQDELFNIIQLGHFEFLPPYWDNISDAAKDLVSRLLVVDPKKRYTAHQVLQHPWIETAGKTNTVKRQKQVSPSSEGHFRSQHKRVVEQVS

EPHA2 = EPHA2 (Homo sapiens, UniProt P29317)
FLT3 = FLT3 (Homo sapiens, UniProt P36888)
FLT3(ITD,D835V) = FLT3(ITD,D835V) (Homo sapiens, UniProt P36888, D835V/ITD)
GRK3 = GRK3 (Homo sapiens, UniProt P35626)
IRAK1 = IRAK1 (Homo sapiens, UniProt P51617)
MAP4K4 = MAP4K4 (Homo sapiens, UniProt O95819)
MEK5 = molecular target: T5, MEK5 (Homo sapiens, UniProt Q13163)
T5 construct: gene MAP2K5
T5 sequence (Q13163 whole entry): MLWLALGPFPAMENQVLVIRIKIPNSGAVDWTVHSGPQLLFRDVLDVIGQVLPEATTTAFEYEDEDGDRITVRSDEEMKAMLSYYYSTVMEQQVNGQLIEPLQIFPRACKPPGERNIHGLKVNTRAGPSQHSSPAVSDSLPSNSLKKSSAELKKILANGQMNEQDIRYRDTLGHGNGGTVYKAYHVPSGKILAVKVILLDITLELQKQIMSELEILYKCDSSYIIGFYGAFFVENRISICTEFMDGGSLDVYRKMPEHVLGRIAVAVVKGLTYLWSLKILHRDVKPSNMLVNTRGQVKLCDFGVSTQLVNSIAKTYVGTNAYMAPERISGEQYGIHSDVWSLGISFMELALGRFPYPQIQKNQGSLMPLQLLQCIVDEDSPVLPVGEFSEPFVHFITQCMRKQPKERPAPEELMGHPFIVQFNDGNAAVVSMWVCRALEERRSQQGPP

PAK6 = PAK6 (Homo sapiens, UniProt Q9NQU5)
PCTK1 = molecular target: T6, PCTK1 (Homo sapiens, UniProt Q00536)
T6 construct: gene CDK16

PFTK1 = molecular target: T7, PFTK1 (Homo sapiens, UniProt O94921)
T7 construct: gene CDK14

PIK3C2G = PIK3C2G (Homo sapiens, UniProt O75747)
PIK3CA(E545K) = PIK3CA(E545K) (Homo sapiens, UniProt P42336, E545K)
Sequence of PIK3CA(E545K) (P42336 whole entry E545K): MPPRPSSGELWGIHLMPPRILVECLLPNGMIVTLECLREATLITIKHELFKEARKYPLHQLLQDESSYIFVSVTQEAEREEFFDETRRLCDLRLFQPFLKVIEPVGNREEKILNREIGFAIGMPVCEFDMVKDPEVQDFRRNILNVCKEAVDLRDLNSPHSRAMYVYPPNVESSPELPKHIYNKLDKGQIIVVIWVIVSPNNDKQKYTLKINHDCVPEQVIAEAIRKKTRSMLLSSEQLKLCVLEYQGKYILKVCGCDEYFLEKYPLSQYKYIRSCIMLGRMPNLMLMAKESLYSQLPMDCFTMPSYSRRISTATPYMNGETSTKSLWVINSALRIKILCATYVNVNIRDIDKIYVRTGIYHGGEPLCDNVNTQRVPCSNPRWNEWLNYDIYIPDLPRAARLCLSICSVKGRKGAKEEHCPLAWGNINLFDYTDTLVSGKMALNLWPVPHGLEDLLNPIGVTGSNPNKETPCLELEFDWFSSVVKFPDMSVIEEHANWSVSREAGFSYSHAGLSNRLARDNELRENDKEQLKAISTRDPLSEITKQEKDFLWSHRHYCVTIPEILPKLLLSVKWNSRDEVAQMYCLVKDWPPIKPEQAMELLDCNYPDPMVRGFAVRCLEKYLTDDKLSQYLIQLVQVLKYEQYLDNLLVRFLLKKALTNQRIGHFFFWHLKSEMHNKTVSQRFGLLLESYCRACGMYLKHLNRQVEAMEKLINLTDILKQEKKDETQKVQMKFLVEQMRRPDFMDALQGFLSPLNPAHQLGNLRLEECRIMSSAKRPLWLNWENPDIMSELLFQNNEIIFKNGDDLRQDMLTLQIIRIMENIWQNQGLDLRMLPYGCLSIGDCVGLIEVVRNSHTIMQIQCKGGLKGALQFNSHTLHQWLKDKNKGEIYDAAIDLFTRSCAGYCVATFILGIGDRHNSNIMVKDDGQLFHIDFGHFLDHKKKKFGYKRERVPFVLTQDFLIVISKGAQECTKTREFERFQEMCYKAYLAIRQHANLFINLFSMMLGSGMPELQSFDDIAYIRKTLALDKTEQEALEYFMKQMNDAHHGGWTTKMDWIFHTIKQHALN

PKMYT1 = PKMYT1 (Homo sapiens, UniProt Q99640)
PLK4 = PLK4 (Homo sapiens, UniProt O00444)
[2] = molecular target: T8, RSK4(Kin.Dom.2-C-terminal) (Homo sapiens, UniProt Q9UK32)
T8 construct: gene RPS6KA6; Kin.Dom.2-C-terminal
T8 sequence (Q9UK32 whole entry): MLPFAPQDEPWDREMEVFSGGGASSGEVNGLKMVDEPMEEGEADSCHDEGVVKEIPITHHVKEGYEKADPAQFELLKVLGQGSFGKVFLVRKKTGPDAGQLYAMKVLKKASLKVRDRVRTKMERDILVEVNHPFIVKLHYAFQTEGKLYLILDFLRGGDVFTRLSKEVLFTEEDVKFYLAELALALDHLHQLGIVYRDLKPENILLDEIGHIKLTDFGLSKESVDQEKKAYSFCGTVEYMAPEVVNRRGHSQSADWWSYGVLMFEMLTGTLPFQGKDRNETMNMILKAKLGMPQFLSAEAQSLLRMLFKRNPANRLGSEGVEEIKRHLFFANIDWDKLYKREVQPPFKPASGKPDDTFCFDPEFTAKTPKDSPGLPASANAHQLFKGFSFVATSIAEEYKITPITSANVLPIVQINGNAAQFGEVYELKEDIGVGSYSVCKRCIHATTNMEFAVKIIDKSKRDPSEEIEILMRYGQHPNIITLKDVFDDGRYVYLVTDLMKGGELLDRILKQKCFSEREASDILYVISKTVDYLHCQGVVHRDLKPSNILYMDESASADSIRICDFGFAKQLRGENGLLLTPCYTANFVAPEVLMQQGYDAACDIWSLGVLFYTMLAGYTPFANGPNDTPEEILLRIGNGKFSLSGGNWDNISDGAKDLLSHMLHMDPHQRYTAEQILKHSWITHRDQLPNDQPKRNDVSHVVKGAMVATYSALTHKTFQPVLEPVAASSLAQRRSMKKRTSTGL

TAOK1 = TAOK1 (Homo sapiens, UniProt Q7L7X3)
TIE1 = TIE1 (Homo sapiens, UniProt P35590)
ULK3 = ULK3 (Homo sapiens, UniProt Q6PHR2)
Sequence of ULK3 (Q6PHR2 whole entry): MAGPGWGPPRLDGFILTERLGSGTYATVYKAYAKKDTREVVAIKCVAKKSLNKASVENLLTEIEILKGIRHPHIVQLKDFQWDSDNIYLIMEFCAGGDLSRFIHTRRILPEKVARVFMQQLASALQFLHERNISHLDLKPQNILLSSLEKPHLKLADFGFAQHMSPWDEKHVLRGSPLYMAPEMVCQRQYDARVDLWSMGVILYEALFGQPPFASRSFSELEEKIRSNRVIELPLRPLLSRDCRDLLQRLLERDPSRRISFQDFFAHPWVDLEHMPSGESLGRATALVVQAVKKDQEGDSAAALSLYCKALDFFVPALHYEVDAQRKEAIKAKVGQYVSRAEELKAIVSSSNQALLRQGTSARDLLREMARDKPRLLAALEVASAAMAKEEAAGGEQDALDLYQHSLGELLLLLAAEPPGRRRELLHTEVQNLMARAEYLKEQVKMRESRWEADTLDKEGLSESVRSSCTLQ

`Cc1ccc(NC(=O)c2cccc(C(F)(F)F)c2)cc1Nc1cc(-c2cccnc2)nc2[nH]ccc12` [HZX-02-059] gave a remaining binding at 1 µM [1] of 61%, a remaining binding at 1 µM (ADCK4) of 91% and a remaining binding at 1 µM (AMPK-alpha1) of 97%. The remaining binding at 1 µM (BUB1) was 100%, the remaining binding at 1 µM (CSNK2A2) was 100% and the remaining binding at 1 µM (DCAMKL3) was 81%. The remaining binding at 1 µM (EPHA2) was 4%, the remaining binding at 1 µM (FLT3) was 91% and the remaining binding at 1 µM (FLT3(ITD,D835V)) was 100%. The remaining binding at 1 µM (GRK3) was 98%, the remaining binding at 1 µM (IRAK1) was 100% and the remaining binding at 1 µM (MAP4K4) was 89%. For the same molecule, the remaining binding at 1 µM (MEK5) was 83%, the remaining binding at 1 µM (PAK6) was 100% and the remaining binding at 1 µM (PCTK1) was 100%. It also gave a remaining binding at 1 µM (PFTK1) of 98%, a remaining binding at 1 µM (PIK3C2G) of 86% and a remaining binding at 1 µM (PIK3CA(E545K)) of 63%. It also gave a remaining binding at 1 µM (PKMYT1) of 96%, a remaining binding at 1 µM (PLK4) of 91% and a remaining binding at 1 µM [2] of 97%. The remaining binding at 1 µM (TAOK1) was 100%, the remaining binding at 1 µM (TIE1) was 100% and the remaining binding at 1 µM (ULK3) was 91%.
